Data set [1] in a line: Treatment study: plasma Cmin after oral dosing for 14 days in HCV genotype-1 patients. The following applies: for Plasma Mean Cmin at 0 hour (trough) predose: 14 days, preliminary mean. Format: in vivo, human. The procedure: FIG. 2 is a box plot showing trough plasma levels of a compound of Formula Ia measured on day 14 at various times when a compound of Formula Ia is administered twice per day (bid, left box) and when a compound of Formula Ia is administered three times per day (tid, right box). It has been determined that metabolism of compounds of the present invention is also affected by the patient's circadian rhythm. As shown in FIG. 2 (right hand box), plasma levels of the drug are highest in the morning, when measured 8 hours after the previous dose and before the morning dose is administered.

Data set [2] is described as follows: Solubility in water / aqueous systems. Format: physicochemical.

For `CC(C)(C)NC(=O)N[C@H](C(=O)N1CC2C([C@H]1C(=O)NC(CC1CCC1)C(=O)C(N)=O)C2(C)C)C(C)(C)C` (stereo partly drawn) [Formula Ia, (1R,5S)-N-[3-Amino-1-(Cyclobutylmethyl)-2,3-Dioxopropyl]-3-[2(S)-[[[(1,1-Dimethylethyl)Amino]Carbonyl]Amino]-3,3-Dimethyl-1-Oxobutyl]-6,6-Dimethyl-3-Azabicyclo[3.1.0]Hexan-2(S)-Carboxamide], the “Plasma Mean Cmin at 0 hour (trough) predose” value in data set [1] (100 mg BID oral, n = 12, HCV genotype-1 patients) is “Cmin = 12.7 ng/ml”; in data set [1] (200 mg BID oral, n = 12, HCV genotype-1 patients), “Cmin = 46.3 ng/ml”; in data set [1] (400 mg BID oral, n = 11, HCV genotype-1 patients), “Cmin = 48.8 ng/ml”; in data set [1] (400 mg TID oral, n = 10, HCV genotype-1 patients), “Cmin = 183 ng/ml”. Also, the “average Cmin plasma concentration maintained” value in data set [1] (all dosing regimens of Table 1) is at least 10 ng/mL. Moreover, the solubility (in general, how much of the substance goes into solution per volume) in data set [2] was around 600 µg/mL.

Source of the values: patent US20060276406A1, “Methods of treating hepatitis C virus” (Schering Corporation, priority 2005, published 2006).
